Results on two compounds are retold here after patent US11867660B2, “Electronic control of the pH of a solution close to an electrode surface” (Robert Bosch GmbH, priority 2015, dated 2024).

Series [1] is described as follows: Electro-oxidation/reduction of species at indium tin oxide electrode (voltammetry). Format: physicochemical. From the text:
FIG. 7B: Cyclic voltammetric study of the oxidation of Ascorbic acid test in ITO electrodes. Current increase around 0.25V indicates the start of oxidation at ITO electrodes.
Electrode material used: The electrode material was indium tin oxide. This is a semiconducting electrode surface with very large potential window in an aqueous solution.
Oxidation of ascorbic acid at the electrode surfaces produced H^+ ions and changed the electrode surface pH to a more acidic state: AH2→A+2H^++2e^−, where AH2 is ascorbic acid ([…]) (as shown in FIG. 5). The electrode potential at which it oxidizes was less than 0.5V for Indium tin oxide material vs Ag/AgCl reference electrode (as shown in FIG. 7). This potential was less than the voltages needed for the oxygen evolution reaction in aqueous solution. Higher electrode potential (e.g. >1V for ITO electrodes in just phosphate buffer) can damage the PEG layer (as shown in FIG. 8). The ascorbic acid also acted as a sacrificial species to prevent electrochemical degradation of the surface chemistry.
Reduction of benzoquinone (C6H4O2) into Hydroquinone (C6H6O2) can produce OH− ions at −0.1V: BQ+2e^−+2H2O→HQ+2OH^− This reduction reaction increased the pH at the electrode interface.

The target in series [2] is Green Fluorescent Protein (GFP) (Aequorea victoria, UniProt P42212). The experiment in a line: GFP fluorescence intensity after incubation with benzoquinones (protein stability). Format: biochemical. The following applies: 0.5 mM benzoquinone, phosphate buffered saline, 30 min. An excerpt: Para-benzoquinones and ortho-benzoquinones (compounds 2, 4, 6, and 9 in FIG. 22) are susceptible to nucleophilic attack at the double bond of the ring (positions 2, 3, 5 and 6 in structure 2 of FIG. 22, positions 3, 4, 5 and 6 in structure 4 of FIG. 22, and positions 2 and 3 in structure 6 of FIG. 22). Introducing substituents at some or all of those positions can mitigate the problem of nucleophilic attack. For example, 1,4-benzoquinone (structure 2 in FIG. 22, where R1, R2, R3 and R4 are H) undergoes Michael addition reaction with amino groups of proteins (Loomis et al., Phytochemistry, 5, 423, (1966) and U.S. Pat. No. 6,753,312 B2). […] Fluorescence intensity of Green Fluorescent Protein (GFP) was measured after incubation with three different benzoquinones in phosphate buffered saline for 30 min (concentration of benzoquinones was 0.5 mM). The difference in fluorescence intensity indicates the varied effect that the different substitutions in benzoquinones have on the stability of GFP. Fluorescence intensity of GFP is indicative of its structural integrity. Losses in fluorescence intensity usually indicate loss of its tertiary structure (protein denaturation) (Yin D. X., Zhu L., Schimke R. T. Anal. Biochem. 1996, 235:195-201).

Turning to `O=C1O[C@H]([C@@H](O)CO)C(O)=C1O` [ascorbic acid], in series [1] (ITO electrodes), the “start of oxidation (current increase), cyclic voltammetry” value is on record as “around 0.25 V”. For the same compound, the “electrode potential at which it oxidizes” value in series [1] (Indium tin oxide vs Ag/AgCl reference electrode) is reported as “less than 0.5 V”.
As for `O=C1C=CC(=O)C=C1` [unsubstituted benzoquinone, 1,4-benzoquinone], the “potential of reduction into hydroquinone producing OH- ions” value in series [1] was −0.1 V. The “loss in GFP fluorescence intensity” value in series [2] worked out at 25%.
